{
  "source": "patent CN105311047A",
  "about": "“一种替米考星药物包合物及其制备和应用” (Luoyang Huizhong Animal Medicine Co Ltd, priority 2014, dated 2016)",
  "assay": "In vitro sustained-release test (dialysis bag, phosphate buffer, UV 287 nm)",
  "format": "physicochemical",
  "details": "after 24 h (24h以后); phosphate buffer pH 6.86, 37±0.5 ℃, 100 r/min",
  "data": [
    {"smiles": "CC[C@H]1OC(=O)C[C@@H](O)[C@H](C)[C@@H](O[C@@H]2O[C@H](C)[C@@H](O)[C@H](N(C)C)[C@H]2O)[C@@H](CCN2C[C@H](C)C[C@H](C)C2)C[C@@H](C)C(=O)/C=C/C(C)=C/[C@@H]1CO[C@@H]1O[C@H](C)[C@@H](O)[C@@H](OC)[C@H]1OC", "note": "[替米考星原粉, 替米考星]", "values": [
      {"measurement": "release rate", "result": "> 95", "unit": "%"}
    ]}
  ]
}
